Biological target: T1, human neutrophil elastase (HNE) (Homo sapiens, UniProt P08246)
T1 construct: purchased Sigma E8140
T1 sequence (P08246 30-247 limits assumed): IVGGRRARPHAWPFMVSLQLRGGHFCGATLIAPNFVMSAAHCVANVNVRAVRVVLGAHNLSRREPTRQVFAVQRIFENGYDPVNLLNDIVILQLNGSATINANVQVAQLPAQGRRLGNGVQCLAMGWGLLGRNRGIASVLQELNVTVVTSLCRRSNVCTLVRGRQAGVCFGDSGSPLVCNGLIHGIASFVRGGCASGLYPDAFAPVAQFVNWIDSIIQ
Assay: HNE enzyme assay
Format: biochemical
Conditions: human leukocyte elastase 0.00072 U/mL; substrate MeOSuc-Ala-Ala-Pro-Val-AMC 100 μM; 25° C., 30 minutes; at least two separate experiments; read-out: HNE inhibition
Method: Compounds of this invention were tested for potency in a human neutrophil elastase (HNE) enzyme activity assay. HNE Enzyme Assay Assays were performed in 96-well plates in a total assay volume of 100 μL. The final concentration of elastase enzyme (human leukocyte elastase, Sigma E8140) was 0.00072 U/mL. The peptide substrate (MeOSuc-[…], Calbiochem #324740) was used at a final concentration of 100 μM. The final concentration of DMSO was 1% in the assay buffer (0.05M Tris.HCl, 0.1M NaCl, 0.1M CaCl2, 0.0005% brij-35, pH 7.5). The enzymatic reaction was started by addition of the enzyme and incubated at 25° C. for 30 minutes. After incubation, the reaction was stopped by addition of soybean trypsin inhibitor (Sigma T9003) at a final concentration of 50 μg/well. Fluorescence was measured using a Molecular Devices fluorescence plate reader using 380 nm excitation and 460 nm emission wavelengths. A dose response to each compound was performed and the effect of compound in each experiment was expressed as a percentage inhibition of the control enzyme fluorescence. Dose response curves were plotted and compound potency (IC50) was determined. Compounds were tested in at least two separate experiments.

Row | Compound | IC50
1 | Cc1c(-c2ccnn2-c2ccc(C#N)cc2CC[N+](C)(C)C)n(C(=O)NC2CC2)c(=O)n1-c1cccc(C(F)(F)F)c1 [Example 12, [2-(5-Cyano-2-{5-[3-cyclopropylcarbamoyl-5-methyl-2-oxo-1-(3-trifluoromethyl-phenyl)-2,3-dihydro-1H-imidazol-4-yl]-pyrazol-1-yl}-phenyl)-ethyl]-trimethyl-ammonium benzene sulphonate] | < 1 nM
2 | Cc1c(-c2ccnn2-c2ccc(C#N)cc2CC[N+](C)(C)C)n(C(=O)NC(C)C)c(=O)n1-c1cccc(C(F)(F)F)c1 [Example 14, [2-(5-Cyano-2-{5-[3-isopropylcarbamoyl-5-methyl-2-oxo-1-(3-trifluoromethyl-phenyl)-2,3-dihydro-1H-imidazol-4-yl]-pyrazol-1-yl}-phenyl)-ethyl]-trimethyl-ammonium benzene sulphonate] | < 1 nM
3 | Cc1c(-c2ccnn2-c2ccc(C#N)cc2CC[N+](C)(C)C)n(C(=O)NC2CCCCC2)c(=O)n1-c1cccc(C(F)(F)F)c1 [Example 11, [2-(5-Cyano-2-{5-[3-cyclohexylcarbamoyl-5-methyl-2-oxo-1-(3-trifluoromethyl-phenyl)-2,3-dihydro-1H-imidazol-4-yl]-pyrazol-1-yl}-phenyl)-ethyl]-trimethyl-ammonium benzene sulphonate] | < 1 nM
4 | CCNC(=O)n1c(-c2ccnn2-c2ccc(C#N)cc2CC[N+](C)(C)C)c(C)n(-c2cccc(C(F)(F)F)c2)c1=O [Example 13, [2-(5-Cyano-2-{5-[3-ethylcarbamoyl-5-methyl-2-oxo-1-(3-trifluoromethyl-phenyl)-2,3-dihydro-1H-imidazol-4-yl]-pyrazol-1-yl}-phenyl)-ethyl]-trimethyl-ammonium benzene sulphonate] | < 1 nM
5 | Cn1c(-c2ccnn2-c2ccc(C#N)cc2CC[N+](C)(C)C)c(C(=O)NC2CCCC2)c(=O)n1-c1cccc(C(F)(F)F)c1 [Example 15, (2-{5-Cyano-2-[4′-cyclopentylcarbamoyl-2′-methyl-5′-oxo-1′-(3-trifluoromethyl-phenyl)-2′,5′-dihydro-1′H-[3,3′]bipyrazolyl-2-yl]-phenyl}-ethyl)-trimethyl-ammonium benzene sulfonate] | < 1 nM
6 | Cc1c(-c2n(-c3ccc(C#N)cc3)cc[n+]2C)n(C(=O)NC2CCC2)c(=O)n1-c1cccc(C(F)(F)F)c1 [Example 3, 1-(4-Cyanophenyl)-2-{3-(cyclobutylcarbamoyl)-5-methyl-2-oxo-1-[3-(trifluoromethyl)phenyl]-2,3-dihydro-1H-imidazol-4-yl}-3-methyl-1H-imidazol-3-ium benzene sulfonate] | < 1 nM
7 | Cc1c(-c2n(-c3ccc(C#N)cc3)cc[n+]2Cc2ccccc2)n(C(=O)NC2CCCC2)c(=O)n1-c1cccc(C(F)(F)F)c1 [Example 2, 1-(4-Cyanophenyl)-2-{3-(cyclopentylcarbamoyl)-5-methyl-2-oxo-1-[3-(trifluoromethyl)phenyl]-2,3-dihydro-1H-imidazol-4-yl}-3-benzyl-1H-imidazol-3-ium bromide] | < 1 nM
8 | Cn1c(-c2ccnn2-c2ccc(C#N)cc2CC[N+](C)(C)C)c(C(=O)NC2CCCCC2)c(=O)n1-c1cccc(C(F)(F)F)c1 [Example 17, (2-{5-Cyano-2-[4′-cyclohexylcarbamoyl-2′-methyl-5′-oxo-1′-(3-trifluoromethyl-phenyl)-2′,5′-dihydro-1′H-[3,3′]bipyrazolyl-2-yl]-phenyl}-ethyl)-trimethyl-ammonium benzene sulfonate] | < 1 nM
9 | Cc1c(-c2n(-c3ccc(C#N)cc3)nc[n+]2C)n(C(=O)NC2CCCC2)c(=O)n1-c1cccc(C(F)(F)F)c1 [Example 6, 1-(4-Cyano-phenyl)-5-[3-cyclopentylcarbamoyl-5-methyl-2-oxo-1-(3-trifluoromethyl-phenyl)-2,3-dihydro-1H-imidazol-4-yl]-4-methyl-1H-[1,2,4]triazol-4-ium benzene sulfonate] | < 1 nM

The remaining lines, values ahead:

Row | IC50 | Compound
10 | < 1 nM | Cn1c(-c2n(-c3ccc(C#N)cc3)nc[n+]2C)c(C(=O)NC2CCCC2)c(=O)n1-c1cccc(C(F)(F)F)c1 [Example 8, 1-(4-cyano-phenyl)-5-[4-cyclopentylcarbamoyl-2-methyl-5-oxo-1-(3-trifluoromethyl-phenyl)-2,5-dihydro-1H-pyrazol-3-yl]-4-methyl-1H-[1,2,4]triazol-4-ium benzenesulfonate]
11 | < 1 nM | Cc1c(-c2n(-c3ccc(C#N)cc3)cc[n+]2C)n(C(=O)NC2CCN(C(=O)C(F)(F)F)CC2)c(=O)n1-c1cccc(C(F)(F)F)c1 [Example 4, 1-(4-Cyanophenyl)-2-{3-[1-(2,2,2-trifluoro-acetyl)-piperidin-4-ylcarbamoyl]-5-methyl-2-oxo-1-[3-(trifluoromethyl)phenyl]-2,3-dihydro-1H-imidazol-4-yl}-3-methyl-1H-imidazol-3-ium benzene sulfonate]
12 | 1 to 10 nM | Cc1c(-c2n(-c3ccc(C#N)cc3)cc[n+]2C)n(C(=O)NCc2ccc(S(C)(=O)=O)cc2)c(=O)n1-c1cccc(C(F)(F)F)c1 [Example 5, 1-(4-Cyanophenyl)-2-{3-(4-methanesulfonyl-benzylcarbamoyl)-5-methyl-2-oxo-1-[3-(trifluoromethyl)phenyl]-2,3-dihydro-1H-imidazol-4-yl}-3-methyl-1H-imidazol-3-ium benzene sulfonate]
13 | < 1 nM | Cn1c(-c2ccnn2-c2ccc(C#N)cc2CC[N+](C)(C)Cc2ccccc2)c(C(=O)NC2CCCC2)c(=O)n1-c1cccc(C(F)(F)F)c1 [Example 16, Benzyl-(2-{5-cyano-2-[4′-cyclopentylcarbamoyl-2′-methyl-5′-oxo-1′-(3-trifluoromethyl-phenyl)-2′,5′-dihydro-1′H-[3,3′]bipyrazolyl-2-yl]-phenyl}-ethyl)-dimethyl-ammonium bromide]
14 | < 1 nM | Cc1c(-c2n(-c3ccc(C#N)cc3)cc[n+]2C)n(C(=O)NC2CCCC2)c(=O)n1-c1cccc(C(F)(F)F)c1 [Example 1, 1-(4-Cyanophenyl)-2-{3-(cyclopentylcarbamoyl)-5-methyl-2-oxo-1-[3-(trifluoromethyl)phenyl]-2,3-dihydro-1H-imidazol-4-yl}-3-methyl-1H-imidazol-3-ium benzene sulfonate]
15 | < 1 nM | Cn1c(-c2n(-c3ccc(C#N)cc3)cc[n+]2C)c(C(=O)NC2CCCC2)c(=O)n1-c1cccc(C(F)(F)F)c1 [Example 7, 3-(4-Cyano-phenyl)-2-[4-cyclopentylcarbamoyl-2-methyl-5-oxo-1-(3-trifluoromethyl-phenyl)-2,5-dihydro-1H-pyrazol-3-yl]-1-methyl-3H-imidazol-1-ium benzenesulfonate]
16 | < 1 nM | Cc1c(-c2ccnn2-c2ccc(C#N)cc2CC[N+](C)(C)Cc2ccccc2)n(C(=O)NC2CCCC2)c(=O)n1-c1cccc(C(F)(F)F)c1 [Example 10, Benzyl-[2-(5-cyano-2-{5-[3-cyclopentylcarbamoyl-5-methyl-2-oxo-1-(3-trifluoromethyl-phenyl)-2,3-dihydro-1H-imidazol-4-yl]-pyrazol-1-yl}-phenyl)-ethyl]-dimethyl-ammonium bromide]
17 | < 1 nM | Cc1c(-c2ccnn2-c2ccc(C#N)cc2CC[N+](C)(C)C)n(C(=O)NC2CCCC2)c(=O)n1-c1cccc(C(F)(F)F)c1 [Example 9, [2-(5-Cyano-2-{5-[3-cyclopentylcarbamoyl-5-methyl-2-oxo-1-(3-trifluoromethyl-phenyl)-2,3-dihydro-1H-imidazol-4-yl]-pyrazol-1-yl}-phenyl)-ethyl]-trimethyl-ammonium benzene sulfonate]
